Measured values taken from PubChem BioAssay (NCI).
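Protocol summary: plate cells (96-well), add compound at 5 concentrations, incubate 48 h, interpolate endpoints linearly. GI50: concentration for 50% inhibition of growth. TGI: total growth inhibition.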

Tests used:
Test in all cases: NCI tumour cell line growth inhibition, 48 h
BT-549 breast = system: BT-549 breast
UO-31 renal = system: UO-31 renal
HL-60(TB) leukemia = system: HL-60(TB) leukemia
KM12 colon = system: KM12 colon
UACC-257 melanoma = system: UACC-257 melanoma
NCI-H460 lung = system: NCI-H460 lung
A498 renal = system: A498 renal
HOP-92 NSCLC = system: HOP-92 NSCLC
CAKI-1 renal = system: CAKI-1 renal
SF-295 CNS = system: SF-295 CNS

For N#CCCN1C/C(=C/c2ccc(Cl)cc2)C(=O)/C(=C/c2ccc(Cl)cc2)C1, the GI50 (BT-549 breast) was 1.24 µM, the TGI (BT-549 breast) was 2.65 µM and the GI50 (UO-31 renal) was 1.39 µM. It also gave a TGI (UO-31 renal) of 2.77 µM, a GI50 (HL-60(TB) leukemia) of 2.12 µM and a TGI (HL-60(TB) leukemia) of 7.38 µM. It also gave a GI50 (KM12 colon) of 0.275 µM, a TGI (KM12 colon) of 0.841 µM and a GI50 (UACC-257 melanoma) of 2.05 µM. It also gave a TGI (UACC-257 melanoma) of 4.38 µM, a GI50 (NCI-H460 lung) of 0.707 µM and a TGI (NCI-H460 lung) of 2.52 µM. For the same molecule, the GI50 (A498 renal) was 1.59 µM, the TGI (A498 renal) was 3.11 µM and the GI50 (HOP-92 NSCLC) was 1.81 µM. The TGI (HOP-92 NSCLC) was 5 µM, the GI50 (CAKI-1 renal) was 2.95 µM and the TGI (CAKI-1 renal) was 12 µM.
C=CCN1CC(=O)N2[C@@H](Cc3ccc(O)cc3F)C(=O)N(Cc3cccc(N4CC(N5CCN(CC)CC5)C4)n3)C[C@@H]2N1C(=O)NCc1ccccc1 gave a GI50 (BT-549 breast) of 0.111 µM, a TGI (BT-549 breast) greater than 54.1 µM and a GI50 (UO-31 renal) of 0.919 µM. The TGI (UO-31 renal) was greater than 100 µM, the GI50 (HL-60(TB) leukemia) was 0.226 µM and the TGI (HL-60(TB) leukemia) was 26.5 µM. It also gave a GI50 (SF-295 CNS) of 0.0965 µM, a TGI (SF-295 CNS) of 1.02 µM and a GI50 (KM12 colon) of 0.111 µM. The TGI (KM12 colon) was greater than 100 µM, the GI50 (UACC-257 melanoma) was 0.0648 µM and the TGI (UACC-257 melanoma) was 12.9 µM. For the same molecule, the GI50 (NCI-H460 lung) was 0.038 µM, the TGI (NCI-H460 lung) was greater than 100 µM and the GI50 (A498 renal) was less than 0.0118 µM. The TGI (A498 renal) was 0.0666 µM, the GI50 (HOP-92 NSCLC) was 0.0217 µM and the TGI (HOP-92 NSCLC) was 0.0829 µM. The GI50 (CAKI-1 renal) was 0.0507 µM and the TGI (CAKI-1 renal) was 0.504 µM.
In the case of COC(=O)c1cc2c(cc1Cl)SC1=NN(C)C(N(C)C)N1S2(=O)=O (stereo unspecified), the GI50 (BT-549 breast) is reported as greater than 100 µM, the TGI (BT-549 breast) is reported as greater than 100 µM and the GI50 (UO-31 renal) is reported as greater than 100 µM. The TGI (UO-31 renal) was greater than 100 µM, the GI50 (HL-60(TB) leukemia) was greater than 100 µM and the TGI (HL-60(TB) leukemia) was greater than 100 µM. For the same molecule, the GI50 (SF-295 CNS) was greater than 100 µM, the TGI (SF-295 CNS) was greater than 100 µM and the GI50 (KM12 colon) was greater than 100 µM. It also gave a TGI (KM12 colon) greater than 100 µM, a GI50 (UACC-257 melanoma) greater than 100 µM and a TGI (UACC-257 melanoma) greater than 100 µM. It also gave a GI50 (NCI-H460 lung) greater than 100 µM, a TGI (NCI-H460 lung) greater than 100 µM and a GI50 (A498 renal) greater than 100 µM. It also gave a TGI (A498 renal) greater than 100 µM, a GI50 (HOP-92 NSCLC) greater than 100 µM and a TGI (HOP-92 NSCLC) greater than 100 µM. It also gave a GI50 (CAKI-1 renal) greater than 100 µM and a TGI (CAKI-1 renal) greater than 100 µM.
COC(=O)[C@H]1CCCN1C(=O)[C@H]1CCCN1C(=O)[C@@H](Cc1c[nH]c2ccccc12)NC(=S)Nc1cc(C(F)(F)F)cc(C(F)(F)F)c1 was tested, and the GI50 (BT-549 breast) was 2.47 µM, the TGI (BT-549 breast) was 5.59 µM and the GI50 (UO-31 renal) was 2.16 µM. For the same molecule, the TGI (UO-31 renal) was 6.31 µM, the GI50 (HL-60(TB) leukemia) was 2.38 µM and the TGI (HL-60(TB) leukemia) was 6.03 µM. The GI50 (SF-295 CNS) was 1.67 µM, the TGI (SF-295 CNS) was 3.17 µM and the GI50 (KM12 colon) was 1.88 µM. The TGI (KM12 colon) was 3.92 µM, the GI50 (UACC-257 melanoma) was 1.85 µM and the TGI (UACC-257 melanoma) was 4.26 µM. The GI50 (NCI-H460 lung) was 1.96 µM, the TGI (NCI-H460 lung) was 4.1 µM and the GI50 (A498 renal) was 1.67 µM. The TGI (A498 renal) was 5.65 µM, the GI50 (HOP-92 NSCLC) was 1.2 µM and the TGI (HOP-92 NSCLC) was 3.22 µM. It also gave a GI50 (CAKI-1 renal) of 2.1 µM and a TGI (CAKI-1 renal) of 5.63 µM.
Work on N#CC1=C(/N=C/c2ccccc2)Oc2c(ccc3ccccc23)C1c1ccccc1 (stereo unspecified) yielded a GI50 (BT-549 breast) of 0.951 µM, a TGI (BT-549 breast) greater than 24.5 µM and a GI50 (UO-31 renal) of 0.452 µM. The TGI (UO-31 renal) was greater than 100 µM, the GI50 (HL-60(TB) leukemia) was 0.295 µM and the TGI (HL-60(TB) leukemia) was 0.991 µM. The GI50 (SF-295 CNS) was 0.357 µM, the TGI (SF-295 CNS) was greater than 100 µM and the GI50 (KM12 colon) was 0.46 µM. It also gave a TGI (KM12 colon) greater than 100 µM, a GI50 (UACC-257 melanoma) greater than 100 µM and a TGI (UACC-257 melanoma) greater than 100 µM. The GI50 (NCI-H460 lung) was 0.386 µM, the TGI (NCI-H460 lung) was greater than 39.3 µM and the GI50 (A498 renal) was 0.191 µM. The TGI (A498 renal) was 0.747 µM, the GI50 (HOP-92 NSCLC) was 0.299 µM and the TGI (HOP-92 NSCLC) was greater than 23.6 µM. For the same molecule, the GI50 (CAKI-1 renal) was 0.31 µM and the TGI (CAKI-1 renal) was greater than 53.7 µM.
In the case of O=[N+]([O-])c1ccc(N2CCOCC2)c2c1no[n+]2[O-], the GI50 (BT-549 breast) is reported as 1.64 µM, the TGI (BT-549 breast) is reported as 6.25 µM and the GI50 (UO-31 renal) is reported as 1.42 µM. For the same molecule, the TGI (UO-31 renal) was 5.07 µM, the GI50 (HL-60(TB) leukemia) was 0.632 µM and the TGI (HL-60(TB) leukemia) was 2.52 µM. The GI50 (SF-295 CNS) was 1.08 µM, the TGI (SF-295 CNS) was 4.67 µM and the GI50 (KM12 colon) was 1.14 µM. The TGI (KM12 colon) was 2.48 µM, the GI50 (UACC-257 melanoma) was 2.76 µM and the TGI (UACC-257 melanoma) was 10.7 µM. The GI50 (NCI-H460 lung) was 0.601 µM, the TGI (NCI-H460 lung) was 2.07 µM and the GI50 (A498 renal) was 1.17 µM. For the same molecule, the TGI (A498 renal) was 3.2 µM, the GI50 (HOP-92 NSCLC) was 0.923 µM and the TGI (HOP-92 NSCLC) was 5.62 µM. It also gave a GI50 (CAKI-1 renal) of 0.443 µM and a TGI (CAKI-1 renal) of 1.89 µM.
NS(=O)(=O)c1ccc(-c2cc3ccncc3cc2OCc2ccccc2)cc1 gave a GI50 (BT-549 breast) of 6.01 µM, a TGI (BT-549 breast) greater than 25 µM and a GI50 (UO-31 renal) of 14.5 µM. For the same molecule, the TGI (UO-31 renal) was greater than 25 µM, the GI50 (HL-60(TB) leukemia) was 6.43 µM and the TGI (HL-60(TB) leukemia) was greater than 19.3 µM. It also gave a GI50 (SF-295 CNS) greater than 18 µM, a TGI (SF-295 CNS) greater than 25 µM and a GI50 (KM12 colon) greater than 20.2 µM. The TGI (KM12 colon) was greater than 25 µM, the GI50 (UACC-257 melanoma) was greater than 25 µM and the TGI (UACC-257 melanoma) was greater than 25 µM. For the same molecule, the GI50 (NCI-H460 lung) was 9.77 µM, the TGI (NCI-H460 lung) was greater than 25 µM and the GI50 (A498 renal) was 5.65 µM. It also gave a TGI (A498 renal) greater than 25 µM, a GI50 (HOP-92 NSCLC) of 4.94 µM and a TGI (HOP-92 NSCLC) greater than 25 µM. The GI50 (CAKI-1 renal) was greater than 23.8 µM and the TGI (CAKI-1 renal) was greater than 25 µM.
O=C(CC1(O)C(=O)N(Cc2ccccc2)c2ccccc21)c1ccc(C(=O)NCC2CCC3(CC2)OOC2(CCCCC2)OO3)cc1 (stereo unspecified) gave a GI50 (BT-549 breast) of 1.88 µM, a TGI (BT-549 breast) of 4.03 µM and a GI50 (UO-31 renal) of 0.176 µM. For the same molecule, the TGI (UO-31 renal) was 0.338 µM, the GI50 (HL-60(TB) leukemia) was 0.539 µM and the TGI (HL-60(TB) leukemia) was 2.09 µM. It also gave a GI50 (SF-295 CNS) of 1.3 µM, a TGI (SF-295 CNS) of 5.11 µM and a GI50 (KM12 colon) of 0.988 µM. It also gave a TGI (KM12 colon) of 2.58 µM, a GI50 (UACC-257 melanoma) of 5.01 µM and a TGI (UACC-257 melanoma) of 22.9 µM. For the same molecule, the GI50 (NCI-H460 lung) was 1.29 µM, the TGI (NCI-H460 lung) was 3.51 µM and the GI50 (A498 renal) was 2.42 µM. The TGI (A498 renal) was 7.32 µM, the GI50 (HOP-92 NSCLC) was 0.184 µM and the TGI (HOP-92 NSCLC) was 0.434 µM. The GI50 (CAKI-1 renal) was 0.577 µM and the TGI (CAKI-1 renal) was 1.14 µM.
CC1=C(CC(=O)c2cccc([N+](=O)[O-])c2)C(=O)c2ccccc2C1=O gave a GI50 (BT-549 breast) of 13.2 µM, a TGI (BT-549 breast) of 26.5 µM and a GI50 (UO-31 renal) of 10.7 µM. For the same molecule, the TGI (UO-31 renal) was 28.8 µM, the GI50 (HL-60(TB) leukemia) was 2.88 µM and the TGI (HL-60(TB) leukemia) was 7.8 µM. It also gave a GI50 (SF-295 CNS) of 17.7 µM, a TGI (SF-295 CNS) of 36.4 µM and a GI50 (KM12 colon) of 17.3 µM. The TGI (KM12 colon) was 49.5 µM, the GI50 (UACC-257 melanoma) was 3.94 µM and the TGI (UACC-257 melanoma) was 16.1 µM. The GI50 (NCI-H460 lung) was 18.2 µM, the TGI (NCI-H460 lung) was greater than 100 µM and the GI50 (A498 renal) was 42.5 µM. It also gave a TGI (A498 renal) greater than 100 µM, a GI50 (HOP-92 NSCLC) of 4.38 µM and a TGI (HOP-92 NSCLC) of 17.7 µM. It also gave a GI50 (CAKI-1 renal) of 21.7 µM and a TGI (CAKI-1 renal) greater than 100 µM.
CN(CCNCc1ccccn1)CCNCc1ccccn1 showed a GI50 (BT-549 breast) of 1.98 µM, a TGI (BT-549 breast) of 4.63 µM and a GI50 (UO-31 renal) of 1.73 µM. For the same molecule, the TGI (UO-31 renal) was 3.9 µM, the GI50 (HL-60(TB) leukemia) was 3.27 µM and the TGI (HL-60(TB) leukemia) was 23.3 µM. The GI50 (SF-295 CNS) was 2.23 µM, the TGI (SF-295 CNS) was 5.69 µM and the GI50 (KM12 colon) was 3.11 µM. The TGI (KM12 colon) was 10.1 µM, the GI50 (UACC-257 melanoma) was 1.97 µM and the TGI (UACC-257 melanoma) was 3.85 µM. For the same molecule, the GI50 (NCI-H460 lung) was 3.16 µM, the TGI (NCI-H460 lung) was 9.54 µM and the GI50 (A498 renal) was 1.8 µM. The TGI (A498 renal) was 3.27 µM, the GI50 (HOP-92 NSCLC) was 2.02 µM and the TGI (HOP-92 NSCLC) was 5.27 µM.
